# From publication PMC3194046 (European journal of pharmacology, 2009)
# What was measured:
# dopamine (D2) receptor = conditions: ref Kumagai et al., 2000; cited from earlier work
# [1] = molecular target: T1, purified guinea pig sigma1 receptor (Cavia porcellus, UniProt Q60492); assay: Competition binding of [3H]-; conditions: for inhibition of [3H]-(+)-pentazocine binding to the sigma1 receptor: Fig. 2A, 2B
# [2] = molecular target: T2, sigma1 receptor in guinea pig liver membranes (Cavia porcellus, UniProt Q60492); assay: Competition binding of [3H]-
# T2 sequence (Q60492 whole entry): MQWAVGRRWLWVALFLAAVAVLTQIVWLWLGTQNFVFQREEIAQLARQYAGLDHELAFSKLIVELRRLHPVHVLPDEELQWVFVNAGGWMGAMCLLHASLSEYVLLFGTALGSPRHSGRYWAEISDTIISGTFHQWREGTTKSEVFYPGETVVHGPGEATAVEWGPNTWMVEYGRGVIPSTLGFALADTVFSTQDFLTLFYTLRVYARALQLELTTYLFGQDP
# sigma2 receptor = molecular target: T3, sigma2 receptor (Rattus norvegicus, UniProt Q5U3Y7); assay: Sigma2 receptor binding with [3H]-DTG on rat liver membranes, 100 nM; conditions: 100 nM (+)-pentazocine
# T3 sequence (Q5U3Y7 1-176): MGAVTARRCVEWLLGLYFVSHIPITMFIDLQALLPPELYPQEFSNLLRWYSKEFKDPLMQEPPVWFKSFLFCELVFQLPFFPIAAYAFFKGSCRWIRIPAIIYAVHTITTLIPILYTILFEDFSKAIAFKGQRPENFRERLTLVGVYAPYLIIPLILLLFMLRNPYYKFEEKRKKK
# [3] = molecular target: T2, sigma1 receptor in guinea pig liver membranes; assay: Saturation equilibrium binding of [3H]-; conditions: saturation binding and Scatchard transformation
# sigma1 receptor [4] = molecular target: T4, sigma1 receptor (Cavia porcellus, UniProt Q60492); assay: Inhibition of [3H]-; type: binding
# T4 sequence (Q60492 whole entry): as the sequence (Q60492 whole entry) above
# sigma1 receptor [5] = molecular target: T4, sigma1 receptor; assay: Inhibition of [3H]-; type: binding; conditions: HEK-293 homogenates S1,SK1; 2 mM ATP, 5 mM MgCl2; concentrations as high as 100 µM
# pure sigma1 receptor = pure sigma1 receptor (Cavia porcellus, UniProt Q60492); conditions: for inhibition of [125I]Iodoazidococaine photolabeling: 10 µM compound, 1 nM photoprobe; for relative inhibition of [125I]-Iodoazidococaine photolabeling: compounds at 0.1 µM, 1 µM and 10 µM
# Chain of pure sigma1 receptor (Q60492 whole entry): as the sequence (Q60492 whole entry) above
# [6] = molecular target: T1, purified guinea pig sigma1 receptor; conditions: ref Moebius et al., 1997; Ramachandran et al., 2007; cited from earlier work
# [7] = molecular target: T2, sigma1 receptor in guinea pig liver membranes; conditions: ref Moebius et al., 1997; Ramachandran et al., 2007; cited from earlier work
# T1 sequence (Q60492 whole entry): as the sequence (Q60492 whole entry) above
Compound,affinity for the sigma2 receptor (sigma2 receptor),inhibition of [125I]Iodoazidococaine photolabeling (pure sigma1 receptor),relative inhibition of [125I]-Iodoazidococaine photolabeling (pure sigma1 receptor),inhibition of [3H]-(+)-pentazocine binding to the sigma1 receptor [1],further results
CCCCCCC[C@@H]1CC[C@@H](CCCC)N1 [(2R-trans)-2-Butyl-5-heptylpyrrolidine],,,,,affinity for the dopamine (D2) receptor (dopamine (D2) receptor): high affinity
CCCCCCCCCCCCC/C=C/[C@@H](O)[C@@H](N)CO [D-erythro-sphingosine],much lower binding affinity,inhibition of photolabeling,,,Ki [1]: 0.14 ± 0.02 µM; Ki [2]: 13 ± 3.1 µM; mode of inhibition of [3H]-(+)-pentazocine binding [3]: simple competitive interaction; Ki (sigma1 receptor [4]): 3.6 ± 0.6 µM; inhibition of [3H]-(+)-pentazocine binding (sigma1 receptor [5]): did not show a significant inhibition
CCCCCCCCCCCCC/C=C/[C@H](O)[C@@H](N)CO [L-threo-sphingosine],,,,,fold more potent at the pure sigma1 receptor than the naturally occurring isomer ([1]; L-threo compared to naturally occurring isomer): approximately 10 fold
"CCCCCCCCCCCCC/C=C/[C@@H](O)[C@H](CO)N(C)C [N, N dimethyl sphingosine]",much lower binding affinity,inhibition of photolabeling,marginally better than D-erythro sphingosine,,
CCCCCCCCCCCCN [dodecylamine],,,,,Ki [1]: 0.183 ± 0.017 µM
CCCCCCCCCCCCCCC[C@@H](O)[C@@H](N)CO [sphinganine],much lower binding affinity,,,,
CCCCCCCCCCCCC/C=C/[C@@H](O)[C@@H](N)COP(=O)(O)O [sphingosine-1 phosphate],did not bind,did not show significant inhibition,not as effective,failed to do so,
CCCCCCCCCCCCCN1CC(C)OC(C)C1 (stereo not drawn) [tridemorph],,,,,affinity on the pure sigma1 receptor [6]: high affinity; affinity for the sigma1 receptor in guinea pig liver membranes [7]: high affinity
ceramide,,,not as effective,failed to inhibit,
ceramide-1 phosphate,,,not as effective,failed to inhibit,
